The values that follow come from PubChem BioAssay (NCI).

Among the test systems are COLO 205 colon; HCT-116 colon; OVCAR-3 ovarian; EKVX NSCLC; MDA-MB-231 breast; RPMI-8226 leukemia; MCF7 breast; NCI-H23 lung; OVCAR-8 ovarian; DU-145 prostate.
Assay in all cases: NCI-60 cell line screen, 48 h

Molecules are shown by their SMILES.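 Five concentrations, 48 hours, 96-well plates. GI50 is the concentration that inhibits growth by half. TGI marks complete inhibition of growth.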 A value given as a limit tells only on which side of the number the result lay.

In the case of `O=P(O)(O)OCC1OC(n2cnc3c(NCc4ccccc4)ncnc32)C(O)C1O` (configuration not stated), the GI50 in the experiment on COLO 205 colon is 2.37 µM; with HCT-116 colon, 1.66 µM; in the experiment with OVCAR-3 ovarian it was 0.691 µM; with EKVX NSCLC, 2.97 µM; in the experiment on MDA-MB-231 breast it was 0.35 µM; in the experiment on RPMI-8226 leukemia, 3.97 µM. Further, the GI50 in the experiment with MCF7 breast is 1.31 µM; with NCI-H23 lung it was 1.97 µM; in the experiment with OVCAR-8 ovarian it was 0.587 µM. In addition, the TGI is 8.53 µM in the experiment on COLO 205 colon; more than 32.1 µM with HCT-116 colon; 2.16 µM in the experiment on OVCAR-3 ovarian; 80.1 µM in the experiment with EKVX NSCLC; 1.35 µM in the experiment with MDA-MB-231 breast; more than 52.1 µM in the experiment with RPMI-8226 leukemia. The TGI in the experiment with MCF7 breast came out at 19.3 µM; with NCI-H23 lung, 31.4 µM; in the experiment on OVCAR-8 ovarian it was 6.92 µM.
On to `O=C([O-])CC(=O)[O-].[NH-][C@@H]1CCCC[C@H]1[NH-].[Pt+4]`, for which the GI50 was 54 µM with COLO 205 colon; 4.84 µM with HCT-116 colon; 24.9 µM in the experiment on OVCAR-3 ovarian; more than 100 µM in the experiment with EKVX NSCLC; more than 100 µM in the experiment on MDA-MB-231 breast; 1.05 µM with RPMI-8226 leukemia. The GI50 in the experiment with DU-145 prostate is 93 µM; with NCI-H23 lung, 16.9 µM; with OVCAR-8 ovarian, 24.5 µM. Also, the TGI in the experiment on COLO 205 colon, in the experiment with HCT-116 colon, in the experiment on OVCAR-3 ovarian, in the experiment on EKVX NSCLC, in the experiment with MDA-MB-231 breast and in the experiment with RPMI-8226 leukemia was more than 100 µM each time. In addition, the TGI in the experiment with DU-145 prostate is more than 100 µM; with NCI-H23 lung, more than 97.3 µM; in the experiment on OVCAR-8 ovarian, more than 100 µM.
Regarding `O=c1/c(=N\Nc2ccccc2)c2cccc3ccc4cccc1c4c32`, the TGI with COLO 205 colon, in the experiment on HCT-116 colon, in the experiment on OVCAR-3 ovarian, in the experiment on EKVX NSCLC, with MDA-MB-231 breast and in the experiment with RPMI-8226 leukemia was more than 100 µM each time. Further, the TGI with DU-145 prostate, in the experiment on NCI-H23 lung and in the experiment on OVCAR-8 ovarian was more than 100 µM in each case.
For the compound `CCOC(=O)/C=C/c1cccc(F)c1`, the TGI in the experiment with COLO 205 colon, in the experiment with HCT-116 colon, with EKVX NSCLC, with MDA-MB-231 breast, with RPMI-8226 leukemia and with MCF7 breast was more than 100 µM in each case. Further, the TGI with DU-145 prostate, in the experiment on NCI-H23 lung and in the experiment on OVCAR-8 ovarian was more than 100 µM each time.
With `CC1=CCCC2C(C=O)(C1)CC(C)C2(CO)CC/C(=C/CO)CO` (configuration not stated), the TGI with COLO 205 colon, in the experiment on HCT-116 colon, in the experiment on OVCAR-3 ovarian, in the experiment on EKVX NSCLC, with RPMI-8226 leukemia and in the experiment on NCI-H23 lung was more than 100 µM throughout. In the experiment on OVCAR-8 ovarian, this compound had a TGI of more than 100 µM.
With `CO/N=C(\COc1ccc2oc(-c3ccccc3)cc(=O)c2c1)c1ccc(F)cc1`, the GI50 was 59.5 µM in the experiment with COLO 205 colon; 20.3 µM in the experiment on HCT-116 colon; more than 100 µM with OVCAR-3 ovarian; 35.9 µM in the experiment with EKVX NSCLC; 18.7 µM in the experiment on MDA-MB-231 breast; 24.6 µM in the experiment with RPMI-8226 leukemia. In addition, the GI50 is 25 µM with DU-145 prostate, 23.1 µM in the experiment on NCI-H23 lung and 21 µM in the experiment with OVCAR-8 ovarian. Further, the TGI in the experiment on COLO 205 colon is more than 100 µM; with HCT-116 colon it was 48.2 µM; with OVCAR-3 ovarian it was more than 100 µM; in the experiment on EKVX NSCLC, more than 100 µM; in the experiment on MDA-MB-231 breast, 39 µM; in the experiment with RPMI-8226 leukemia, more than 100 µM. Besides, the TGI with DU-145 prostate worked out at 76.5 µM; in the experiment with NCI-H23 lung, 64.7 µM; with OVCAR-8 ovarian, 47.6 µM.
In the case of `COc1cc2cnc3c4cc(OCc5ccccc5)ccc4ccc3c2cc1OC`, the TGI was 74.9 µM with COLO 205 colon; more than 100 µM in the experiment on HCT-116 colon; more than 100 µM in the experiment with OVCAR-3 ovarian; more than 100 µM in the experiment with EKVX NSCLC; 20.2 µM with RPMI-8226 leukemia; 75.7 µM with NCI-H23 lung. This compound showed a TGI with OVCAR-8 ovarian of more than 100 µM.
In the case of `COc1ccc2[nH]c(C(=O)OCc3ccc4c(Cl)cc(Cl)c(O)c4n3)cc2c1`, the GI50 was 1.13 µM in the experiment with COLO 205 colon; 0.436 µM in the experiment with HCT-116 colon; 0.513 µM with OVCAR-3 ovarian; 1.45 µM in the experiment with EKVX NSCLC; 1.02 µM with MDA-MB-231 breast; 0.803 µM in the experiment on RPMI-8226 leukemia. Besides, the GI50 is 1.33 µM in the experiment on DU-145 prostate, 1.57 µM in the experiment on NCI-H23 lung and 1.15 µM with OVCAR-8 ovarian. The TGI in the experiment with COLO 205 colon was 2.56 µM; in the experiment on HCT-116 colon, 1.65 µM; in the experiment on OVCAR-3 ovarian it was 1.83 µM; with EKVX NSCLC, 2.88 µM; with MDA-MB-231 breast, 2.18 µM; in the experiment on RPMI-8226 leukemia, 3.86 µM. Further, the TGI is 2.61 µM in the experiment with DU-145 prostate, 3.37 µM in the experiment with NCI-H23 lung and 2.6 µM in the experiment with OVCAR-8 ovarian.
As for `c1cncc(CSc2nc3ccccc3nc2-c2cccs2)c1`, the TGI in the experiment with COLO 205 colon was more than 100 µM; in the experiment on HCT-116 colon, more than 100 µM; in the experiment on OVCAR-3 ovarian, 83.3 µM; with EKVX NSCLC, more than 100 µM; in the experiment with RPMI-8226 leukemia, more than 100 µM; in the experiment with NCI-H23 lung, more than 100 µM. Besides, the TGI with OVCAR-8 ovarian is more than 100 µM.
For the compound `CO[C@@]1(c2ccccc2)O[C@H]2OCCC2[C@H]1c1ccc(Cl)cc1` (some centres not stated), the TGI is 42.2 µM in the experiment on COLO 205 colon; more than 100 µM with HCT-116 colon; 49.7 µM in the experiment on OVCAR-3 ovarian; 64.5 µM in the experiment on EKVX NSCLC; more than 100 µM in the experiment with RPMI-8226 leukemia; 81.6 µM in the experiment on NCI-H23 lung. In the experiment with OVCAR-8 ovarian, this compound showed a TGI of more than 100 µM.
Turning to `CN(N)c1nc(N)c(C#N)c(C#N)c1C#N`, the TGI in the experiment with COLO 205 colon, in the experiment on HCT-116 colon, in the experiment with OVCAR-3 ovarian, in the experiment with MDA-MB-231 breast, with RPMI-8226 leukemia and with MCF7 breast was more than 10 µM each time. Also, the TGI in the experiment with DU-145 prostate, in the experiment with NCI-H23 lung and in the experiment with OVCAR-8 ovarian was more than 10 µM in each case.
